The text below walks through data of patent US5157019A, “Serine protease inhibitors” (Monsanto Company, priority 1991, dated 1992).

Ends that are not written are not given here.

One data set concerns complement activation. The data set is described as follows: Reverse passive arthus reaction (RPAR), histopathology of injection sites. On the set-up: key: 0 indicating no acute inflamation; 1 indication minimal acute inflammation; 2 indicating mild acute inflammation; 3 indicating moderate acute inflammation. The data set is classed as in vivo, guinea pigs. As to conditions: guinea pig, intradermal injection of peptide without antibody. As for the experimental part: These exemplary peptide inhibitors (peptides 13, 7 and 27) were assayed for in vivo activity in inhibiting complement activation using the reverse passive arthus reaction (RPAR). RPAR is a model of complement-mediated damage due to activation via interaction with antigen/antibody complexes. Female guinea pigs (400 gm) were pretreated intracardially with bovine serum albumin and Evans blue dye. Ninety minutes later they received bilateral intradermal injections of peptide inhibitor or control material in the thoracolumbar region. Injection sites were excised postmortem and fixed in 10% buffered formalin for pathological evaluation. The peptides were administered to obtain an initial level of […] in the circulatory system.
The histopathological results are outlined below. The degree of inflammation was scored as follows: 0 indicating no acute inflamation; 1 indication minimal acute inflammation; 2 indicating mild acute inflammation; and 3 indicating moderate acute inflammation.

A further data set has as its target T1, Plasma Kallikrein (Homo sapiens, UniProt P03952).
T1 construct: purchased Sigma K-3126
The data set is described as follows: Plasma kallikrein assay (Chromozym PK). The data set is classed as biochemical. As to conditions: for Kallikrein % inhibition: 50 μM peptide; for inhibition at 100 µM: 100 μM peptide. On the procedure:
Buffer 150 mM Tris·HCl, pH 8.0
Substrate Benzyl-Pro-Phe-Arg-pNa (Chromozym PK, Boeringer Mannheim), 10 mM in deionized water.
Enzyme Plasma Kallikrein (Sigma, K-3126), 0.0312 μ/ml. Used undiluted.
Inhibitor Dissolved at desired concentrations in deionized water or DMSO plus deionized water depending on solubility.
4. Incubate mixture for 5 min at 25° C.
6. Measure rate spectrophotometrically at […] at 25° C.
2. Add appropriate volume of peptide solution
3. Add adjusted volume of buffer compensating for volume of peptide solution.
4. Add an adjusted volume of DMSO to maintain a final amount of 25 μl in the assay
5. Incubate mixture for 5 min at 25° C.
7. Measure rate spectrophotometrically at […] at 25° C.
Inhibition (%) is calculated in the same manner as in previous assays.

T1 sequence (P03952 20-638): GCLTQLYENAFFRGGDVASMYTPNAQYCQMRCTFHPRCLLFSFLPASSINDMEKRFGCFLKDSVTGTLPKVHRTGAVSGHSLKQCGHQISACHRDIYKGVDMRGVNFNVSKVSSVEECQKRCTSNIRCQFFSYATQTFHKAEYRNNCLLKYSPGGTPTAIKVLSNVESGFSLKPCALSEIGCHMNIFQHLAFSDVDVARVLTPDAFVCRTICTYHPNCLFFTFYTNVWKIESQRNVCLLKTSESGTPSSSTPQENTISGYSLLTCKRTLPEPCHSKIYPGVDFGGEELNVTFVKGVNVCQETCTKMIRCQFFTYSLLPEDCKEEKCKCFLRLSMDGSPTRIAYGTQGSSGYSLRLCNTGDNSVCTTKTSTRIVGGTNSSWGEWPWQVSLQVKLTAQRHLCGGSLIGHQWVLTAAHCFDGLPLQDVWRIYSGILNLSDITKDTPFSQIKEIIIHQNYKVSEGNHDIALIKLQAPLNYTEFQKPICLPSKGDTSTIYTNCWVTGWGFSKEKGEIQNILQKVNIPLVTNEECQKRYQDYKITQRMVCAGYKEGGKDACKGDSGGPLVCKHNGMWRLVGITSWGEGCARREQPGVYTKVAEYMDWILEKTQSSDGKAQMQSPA

Consider “AGRSLNPNRVTFKANRPFLVFIREVPLNTIIFLGRVANP [Peptide 27]”, for which the “Degree of inflammation, mean score, protease inhibitor only” value in the data set with complement activation is listed as 1. Sequence “IVRFNRPFLLIIVPTDTQNIFFLSKVTNPSKPR [Peptide 22]” displayed a Kallikrein % inhibition on Plasma Kallikrein of 58%. Sequence PNRVTFKANRPFLVFI [Peptide 2] returned an inhibition at 100 µM against Plasma Kallikrein of 21%. The same measure, in the same setting: the figure for “RVTFKANRPFLVFIREVPLNTIIFLGRVANP [Peptide 21]” is 55%.

“VKFNKPFVFLLIEQNTKSPLFLGKVVNPTQK [Peptide 20]”: on Plasma Kallikrein, the Kallikrein % inhibition worked out at 0%.

The term inhibition denotes the share of the control response that was lost under treatment.
